Key:
Streptococcus pneumoniae = assay: Antimicrobial activity against Streptococcus pneumoniae serotype 3 clinical isolate infected in Wistar rat assessed as cerebrospinal fluid bacterial titer at 50 mg/kg, sc administered 18 hrs post infection measured after 4 hrs; type: functional; conditions: route subcutaneous
Rattus norvegicus [1] = assay: Toxicity in against Streptococcus pneumoniae serotype 3 clinical isolate infected in Wistar rat assessed as increase in CSF IL-18 concentration at 100 mg/kg, sc administered 18 hrs post infection measured after 2 to 6 hrs by microsphere-based multiplex assay; type: organism-based; parameters: dose 100 mg/kg, route subcutaneous; conditions: in vivo
Rattus norvegicus [2] = assay: Toxicity in Streptococcus pneumoniae serotype 3 clinical isolate infected in Wistar rat assessed as decrease in CSF IL-6 concentration at 50 mg/kg, sc administered 18 hrs post infection measured after 2 to 6 hrs by microsphere-based multiplex assay; type: organism-based; parameters: dose 50 mg/kg, route subcutaneous; conditions: in vivo
Rattus norvegicus [3] = assay: Toxicity in Streptococcus pneumoniae serotype 3 clinical isolate infected in Wistar rat assessed as decrease in CSF TNF-alpha concentration at 50 mg/kg, sc administered 18 hrs post infection measured after 2 to 6 hrs by microsphere-based multiplex assay; type: organism-based; parameters: dose 50 mg/kg, route subcutaneous; conditions: in vivo
Rattus norvegicus [4] = assay: Decrease in severity of cortical damage in Streptococcus pneumoniae serotype 3 clinical isolate infected in Wistar rat at 50 mg/kg, sc administered 18 hrs post infection measured after 2 to 6 hrs; type: functional; conditions: route subcutaneous
Rattus norvegicus [5] = assay: Toxicity in Streptococcus pneumoniae serotype 3 clinical isolate infected in Wistar rat assessed as decrease in CSF CXCL1 concentration at 50 mg/kg, sc administered 18 hrs post infection measured after 2 to 6 hrs by microsphere-based multiplex assay; type: organism-based; parameters: dose 50 mg/kg, route subcutaneous; conditions: in vivo
Rattus norvegicus [6] = assay: Toxicity in Streptococcus pneumoniae serotype 3 clinical isolate infected in Wistar rat assessed as decrease in CSF IL1-beta concentration at 50 mg/kg, sc administered 18 hrs post infection measured after 2 to 6 hrs by microsphere-based multiplex assay; type: organism-based; parameters: dose 50 mg/kg, route subcutaneous; conditions: in vivo
Rattus norvegicus [7] = assay: Toxicity in Streptococcus pneumoniae serotype 3 clinical isolate infected in Wistar rat assessed as increase in CSF MIP-1alpha concentration at 100 mg/kg, sc administered 18 hrs post infection measured after 2 to 6 hrs by microsphere-based multiplex assay; type: organism-based; parameters: dose 100 mg/kg, route subcutaneous; conditions: in vivo
Rattus norvegicus [8] = assay: Toxicity in Streptococcus pneumoniae serotype 3 clinical isolate infected in Wistar rat assessed as increase in CSF MCP-1 concentration at 100 mg/kg, sc administered 18 hrs post infection measured after 2 to 6 hrs by microsphere-based multiplex assay; type: organism-based; parameters: dose 100 mg/kg, route subcutaneous; conditions: in vivo
Rattus norvegicus [9] = assay: Decrease in severity of cortical damage in Streptococcus pneumoniae serotype 3 clinical isolate infected in Wistar rat at 100 mg/kg, sc administered 18 hrs post infection measured after 2 to 6 hrs; type: functional; conditions: route subcutaneous
Rattus norvegicus [10] = assay: Toxicity in against Streptococcus pneumoniae serotype 3 clinical isolate infected in Wistar rat assessed as decrease in CSF IL-18 concentration at 50 mg/kg, sc administered 18 hrs post infection measured after 2 to 6 hrs by microsphere-based multiplex assay; type: organism-based; parameters: dose 50 mg/kg, route subcutaneous; conditions: in vivo
Rattus norvegicus [11] = assay: Toxicity in Streptococcus pneumoniae serotype 3 clinical isolate infected in Wistar rat assessed as decrease in CSF MCP-1 concentration at 50 mg/kg, sc administered 18 hrs post infection measured after 2 to 6 hrs by microsphere-based multiplex assay; type: organism-based; parameters: dose 50 mg/kg, route subcutaneous; conditions: in vivo
Rattus norvegicus [12] = assay: Toxicity in Streptococcus pneumoniae serotype 3 clinical isolate infected in Wistar rat assessed as decrease in CSF IL1-beta concentration at 100 mg/kg, sc administered 18 hrs post infection measured after 2 to 6 hrs by microsphere-based multiplex assay; type: organism-based; parameters: dose 100 mg/kg, route subcutaneous; conditions: in vivo
Rattus norvegicus [13] = assay: Toxicity in Streptococcus pneumoniae serotype 3 clinical isolate infected in Wistar rat assessed as decrease in CSF MIP-1alpha concentration at 50 mg/kg, sc administered 18 hrs post infection measured after 2 to 6 hrs by microsphere-based multiplex assay; type: organism-based; parameters: dose 50 mg/kg, route subcutaneous; conditions: in vivo
Rattus norvegicus [14] = assay: Toxicity in Streptococcus pneumoniae serotype 3 clinical isolate infected in Wistar rat assessed as decrease in CSF IL-10 concentration at 100 mg/kg, sc administered 18 hrs post infection measured after 2 to 6 hrs by microsphere-based multiplex assay; type: organism-based; parameters: dose 100 mg/kg, route subcutaneous; conditions: in vivo
Rattus norvegicus [15] = assay: Toxicity in Streptococcus pneumoniae serotype 3 clinical isolate infected in Wistar rat assessed as increase in CSF IL-18 concentration at 50 mg/kg, sc administered 18 hrs post infection measured after 2 to 6 hrs by microsphere-based multiplex assay; type: organism-based; parameters: dose 50 mg/kg, route subcutaneous; conditions: in vivo
Rattus norvegicus [16] = assay: Toxicity in Streptococcus pneumoniae serotype 3 clinical isolate infected in Wistar rat assessed as decrease in CSF IL-10 concentration at 50 mg/kg, sc administered 18 hrs post infection measured after 2 to 6 hrs by microsphere-based multiplex assay; type: organism-based; parameters: dose 50 mg/kg, route subcutaneous; conditions: in vivo

## CCCCCCCCCC(=O)N[C@@H](Cc1c[nH]c2ccccc12)C(=O)N[C@H](CC(N)=O)C(=O)N[C@@H](CC(=O)O)C(=O)N[C@@H]1C(=O)NCC(=O)N[C@@H](CCCN)C(=O)N[C@@H](CC(=O)O)C(=O)N[C@H](C)C(=O)N[C@@H](CC(=O)O)C(=O)NCC(=O)N[C@H](CO)C(=O)N[C@@H]([C@H](C)CC(=O)O)C(=O)N[C@@H](CC(=O)c2ccccc2N)C(=O)O[C@@H]1C
Streptococcus pneumoniae
  log10CFU/ml: < 1000 CFU/ml
Rattus norvegicus [1]
  Activity: Toxic
Rattus norvegicus [2]
  Activity: Non-toxic
Rattus norvegicus [3]
  Activity: Non-toxic
Rattus norvegicus [4]
  inhibition in vivo at 50 mg/kg: 0.13%
Rattus norvegicus [5]
  Activity: Non-toxic

## CO/N=C(\C(=O)N[C@@H]1C(=O)N2C(C(=O)O)=C(CSc3nc(=O)c(=O)[nH]n3C)CS[C@H]12)c1csc(N)n1 [CEFTRIAXONE]
Rattus norvegicus [6]
  Activity: Non-toxic
Rattus norvegicus [7]
  Activity: Toxic
Rattus norvegicus [8]
  Activity: Toxic
Rattus norvegicus [9]
  inhibition in vivo at 100 mg/kg: 4.7%
Rattus norvegicus [10]
  Activity: Non-toxic
Rattus norvegicus [11]
  Activity: Non-toxic
Rattus norvegicus [12]
  Activity: Toxic
Rattus norvegicus [13]
  Activity: Non-toxic
Rattus norvegicus [14]
  Activity: Toxic
Rattus norvegicus [15]
  Activity: Toxic
Rattus norvegicus [16]
  Activity: Non-toxic
